Results: US8075777B2, “Process for the separation of diastereomers” (E. I. du Pont de Nemours and Company, priority 2007, dated 2011)

How the values were obtained:
[1] = NRTL activity model correlation of LLE data (binary interaction parameters, equation 5); type: physicochemical; parameters: key to τ12^(0) / τ21^(0): constant term in τij = τij(0) + τij(1)/T + τij(2)T (NRTL, α=0.2); conditions: non-deuterated, α=0.2
Source text: Observed LLE data have been correlated with the NRTL (non-random two liquid) solution model as described in Shiflett, M. B. and Yokozeki, A. (Vapor-liquid-liquid equilibria of pentafluoroethane and ionic liquid [bmim][PF6] mixtures studied with the volumetric method, J. Phys. Chem. B (2006) 110:14436-14443); and in Shiflett, M. B. and Yokozeki, A. (Vapor-liquid-liquid equilibria of hydrofluorocarbons+1-butyl-3-methylimidazolium hexafluorophosphate, J. Chem. & Eng. Data (2006) 51:1931-1939).
The binary activity coefficients of the NRTL are given by:
[formula] where G12≡exp(−ατ12), and G21≡exp(−ατ21) (3)
α=0.2 (assumed to be a constant of 0.2 in this work).
xi=mole fraction of the i-th species.
The temperature-dependent binary interaction parameter (τij) is modeled here by a three term empirical equation: τ12=τ12^(0)+τ12^(1)/T+τ12^(2)T, and τ21=τ21^(0)+τ21^(1)/T+τ21^(2)T (5)
The binary LLE (L1 for liquid 1 and L2 for liquid 2) are mathematically described by the following equilibrium condition: γi^L1xi^L1=γi^L2xi^L2 (6) Thus, the two adjustable parameters τ12 and τ21 at a given T can be determined from one set of LLE experimental (volumetric method) data, using eq 6 (two nonlinearly coupled equations). We obtained several sets of such LLE data and can obtain τ12 and τ21 at respective T. Then, the empirical parameters in eq 5 were determined and are shown in Example 5, Table 5, where results for only the non-deuterated isomers with ionic liquids are given, since results for the deuterated isomer cases are similar to those in Table 5.

[2] = Single stage liquid-liquid extraction of HFC-4310mee with [bmim][BF4] in separatory funnel, GC analysis of upper phase; type: physicochemical; conditions: 7.2 g HFC-4310mee feed (88.8/11.2 vol % threo/erythro) mixed with 15.1 g [bmim][BF4]
Method: To evaluate this characterization, a sample of HFC-4310mee was analyzed by gas chromatography and found to contain 88.8 vol % HFC-4310mee-threo and 11.2 vol % HFC-4310mee-erythro diastereomers. A 7.2 gram sample of HFC-4310mee (i.e., the feed) was mixed with 15.1 grams of [bmim][BF4] (i.e., the extractant) in a separator funnel and vigorously mixed and then allowed to separate into two phases. […] [BF4]. The lower phase was separated from the top phase by opening the stopcock valve on the bottom of the separatory funnel and decanting off the lower phase. The remaining upper phase was analyzed by gas chromatography. The upper phase contained 91.8 vol % HFC-4310mee-threo and 8.2 vol % HFC-4310mee-erythro, which is in accordance with the ternary diagrams.

[3] = Cloud-point measurements / LCST of HFC-4310mee threo isomers plus ionic liquids; type: physicochemical
Source text: Starting at ambient temperature of about 293 K, where two liquid phases existed, the temperature was lowered (20 K/h) with manual mixing in a constant temperature bath (Tamson Instruments, TV4000LT, Zoetermeer, Netherlands) until only a single phase existed. The bath temperature was calibrated with the NIST traceable SPRT mentioned previously. Achieving a single phase with the mixtures prepared using [emim][BF4] involved going to a lower temperature than was required to achieve a single phase with the mixtures prepared using [bmim][PF6] and [bmim][BF4]. In addition, the rate of decrease in temperature had to be decreased from 20 to 5 K/h with vigorous manual mixing to prevent the ionic-liquid rich phase from solidifying. Sufficient time with vigorous mixing allowed for mixtures containing 70 mole % and higher threo-H and threo-D isomers with [emim][BF4] to become a single phase at a temperature of 240 K. Once the samples were single phase the temperature was slowly raised 2 K/h until a cloud layer became visible inside the tube. The temperature was recorded for each sample when the cloud layer formed and the temperature was slowly raised until all samples had reached the cloud point.

[4] = type: physicochemical
Source text: The separation of the erythro or threo diastereomer from a mixture thereof in HFC-4310mee involves one of the diastereomers being soluble to a greater extent in at least one ionic liquid than the other diastereomer is. In order to study this type of behavior, liquid-liquid equilibrium (LLE) and cloud point measurements on samples of HFC-4310mee were made as described in Examples 1 to 4. […]
Initially, the samples were mixed at room temperature (293.2 K) by vigorously shaking the sample containers. […] The water bath was stirred with an agitator (Arrow Engineering Co., Inc. model 1750, Hillside, N.J.) and the temperature measured with a thermocouple (Fluke Corporation, model 5211 thermometer, Everett, Wash.). The Fluke thermometer was calibrated using a standard platinum resistance thermometer (SPRT model 5699, Hart Scientific, American Fork, Utah, range 73 to 933 K) and readout (Blackstack model 1560 with SPRT module 2560). […]
The water bath temperature was initially set at about 283 K, and the sample containers were rocked back and forth. […] The mixing and measurement procedure was repeated each day and the heights plotted as a function of time until no further change in the heights was detected. […]

Row | Compound | τ12^(0) ([1]; isomer (1)/[bmim][BF4] (2)) | τ12^(1)/K ([1]; isomer (1)/[bmim][BF4] (2)) [K] | τ12^(2)/K^−1 ([1]; isomer (1)/[bmim][BF4] (2)) [K^−1] | τ21^(0) ([1]; isomer (1)/[bmim][BF4] (2)) | τ21^(1)/K ([1]; isomer (1)/[bmim][BF4] (2)) [K] | τ21^(2)/K^−1 ([1]; isomer (1)/[bmim][BF4] (2)) [K^−1] | τ12^(0) ([1]; isomer (1)/[bmim][PF6] (2)) | τ12^(1)/K ([1]; isomer (1)/[bmim][PF6] (2)) [K] | τ12^(2)/K^−1 ([1]; isomer (1)/[bmim][PF6] (2)) [K^−1] | τ21^(0) ([1]; isomer (1)/[bmim][PF6] (2)) | τ21^(1)/K ([1]; isomer (1)/[bmim][PF6] (2)) [K] | τ21^(2)/K^−1 ([1]; isomer (1)/[bmim][PF6] (2)) [K^−1] | τ12^(0) ([1]; isomer (1)/[emim][BF4] (2)) | τ12^(1)/K ([1]; isomer (1)/[emim][BF4] (2)) [K] | τ12^(2)/K^−1 ([1]; isomer (1)/[emim][BF4] (2)) [K^−1] | τ21^(0) ([1]; isomer (1)/[emim][BF4] (2)) | τ21^(1)/K ([1]; isomer (1)/[emim][BF4] (2)) [K] | τ21^(2)/K^−1 ([1]; isomer (1)/[emim][BF4] (2)) [K^−1] | Content in upper phase (extract) by gas chromatography [2] [vol %] | Solubility in the present ionic liquids compared with the erythro-D and erythro-H isomers [4] | also measured
1 | F[C@H]([C@H](F)C(F)(F)C(F)(F)F)C(F)(F)F [HFC-4310mee Erythro-H, erythro-2,3-dihydrodecafluoropentanes] | −1.1221 | 1492.7 | 0 | 18.7323 | −3018.8 | −0.02457 | −5.2583 | 2803.2 | 0 | 2.97 | −584.1 | 0 | 25.6965 | −3500.0 | −0.03688 | 72.2927 | −10850.0 | −0.1125 | 8.2 |  | 
2 | [2H]C(F)(C(F)(F)F)C([2H])(F)C(F)(F)C(F)(F)F (stereo not drawn) [HFC-4310mee Threo-D] |  |  |  |  |  |  |  |  |  |  |  |  |  |  |  |  |  |  |  | more soluble | Cloud point T/K ([3]; [bmim][BF4], 59.9 ± 0.5 mol % HFC): 311 ± 1 K; Cloud point T/K ([3]; [bmim][BF4], 69.4 ± 0.5 mol % HFC): 310 ± 1 K; Cloud point T/K ([3]; [bmim][BF4], 80.1 ± 0.5 mol % HFC): 309 ± 1 K; Cloud point T/K ([3]; [bmim][BF4], 89.3 ± 0.5 mol % HFC): 310 ± 1 K; Cloud point T/K ([3]; [bmim][PF6], 40.0 ± 0.5 mol % HFC): 272 ± 1 K; Cloud point T/K ([3]; [bmim][PF6], 50.0 ± 0.5 mol % HFC): 271 ± 1 K; Cloud point T/K ([3]; [bmim][PF6], 59.7 ± 0.5 mol % HFC): 271 ± 1 K; Cloud point T/K ([3]; [bmim][PF6], 69.8 ± 0.5 mol % HFC): 267 ± 1 K; Cloud point T/K ([3]; [bmim][PF6], 79.7 ± 0.5 mol % HFC): 267 ± 1 K; Cloud point T/K ([3]; [bmim][PF6], 88.5 ± 0.5 mol % HFC): 272 ± 1 K; Cloud point T/K ([3]; [emim][BF4], 69.6 ± 0.5 mol % HFC): 252 ± 3 K; Cloud point T/K ([3]; [emim][BF4], 80.1 ± 0.5 mol % HFC): 261 ± 2 K; Cloud point T/K ([3]; [emim][BF4], 89.8 ± 0.5 mol % HFC): 273 ± 1 K
3 | F[C@H]([C@@H](F)C(F)(F)C(F)(F)F)C(F)(F)F [HFC-4310mee Threo-H, threo-2,3-dihydrodecafluoropentanes] | 91.1575 | −1463.8 | −0.1288 | 81.6624 | −1506.8 | −0.1092 | 145.421 | −22306.3 | −0.2229 | −37.7767 | 5492.1 | 0.06485 | 50.3746 | −7994.5 | −0.06965 | −7.2227 | 1138.3 | 0.0158 | 91.8 | more soluble | LCST (lower critical solution temperature) ([3]; [bmim][BF4] system, at about 75 mole %): 307-309 K; Cloud point T/K ([3]; [bmim][BF4], 50.0 ± 0.5 mol % HFC): 311 ± 1 K; Cloud point T/K ([3]; [bmim][BF4], 59.1 ± 0.5 mol % HFC): 309 ± 1 K; Cloud point T/K ([3]; [bmim][BF4], 69.8 ± 0.5 mol % HFC): 308 ± 1 K; Cloud point T/K ([3]; [bmim][BF4], 79.5 ± 0.5 mol % HFC): 307 ± 1 K; Cloud point T/K ([3]; [bmim][BF4], 91.0 ± 0.5 mol % HFC): 308 ± 1 K; LCST (lower critical solution temperature) ([3]; [bmim][PF6] system, at about 70 (threo-isomer) mole %): 265-267 K; Cloud point T/K ([3]; [bmim][PF6], 40.6 ± 0.5 mol % HFC): 270 ± 1 K; Cloud point T/K ([3]; [bmim][PF6], 50.8 ± 0.5 mol % HFC): 269 ± 1 K; Cloud point T/K ([3]; [bmim][PF6], 60.4 ± 0.5 mol % HFC): 268 ± 1 K; Cloud point T/K ([3]; [bmim][PF6], 69.7 ± 0.5 mol % HFC): 265 ± 1 K; Cloud point T/K ([3]; [bmim][PF6], 80.0 ± 0.5 mol % HFC): 264 ± 1 K; Cloud point T/K ([3]; [bmim][PF6], 90.0 ± 0.5 mol % HFC): 276 ± 1 K; LCST (lower critical solution temperature) ([3]; [emim][BF4] system, at near 50 mole %): about 250 K; Cloud point T/K ([3]; [emim][BF4], 69.8 ± 0.5 mol % HFC): 250 ± 3 K; Cloud point T/K ([3]; [emim][BF4], 80.0 ± 0.5 mol % HFC): 260 ± 2 K; Cloud point T/K ([3]; [emim][BF4], 90.1 ± 0.5 mol % HFC): 268 ± 1 K
